# Legend:
# [1] = biological target: T1, alpha-1A adrenoceptors expressed in CHO-K1 cells (clone 13) (Homo sapiens, UniProt P35348); assay: Functional assay for alpha-1A/L agonist activity (FLIPR, Fluo-3 intracellular calcium); assay type: cell-based; conditions: for IA (intrinsic activity): maximum response relative to full agonist norepinephrine bitartrate, CHO-K1 alpha-1A cells
# T1 construct: expressed in transfected cells; host or cells: CHO-K1 (clone 13)
# T1 sequence (P35348 1-466): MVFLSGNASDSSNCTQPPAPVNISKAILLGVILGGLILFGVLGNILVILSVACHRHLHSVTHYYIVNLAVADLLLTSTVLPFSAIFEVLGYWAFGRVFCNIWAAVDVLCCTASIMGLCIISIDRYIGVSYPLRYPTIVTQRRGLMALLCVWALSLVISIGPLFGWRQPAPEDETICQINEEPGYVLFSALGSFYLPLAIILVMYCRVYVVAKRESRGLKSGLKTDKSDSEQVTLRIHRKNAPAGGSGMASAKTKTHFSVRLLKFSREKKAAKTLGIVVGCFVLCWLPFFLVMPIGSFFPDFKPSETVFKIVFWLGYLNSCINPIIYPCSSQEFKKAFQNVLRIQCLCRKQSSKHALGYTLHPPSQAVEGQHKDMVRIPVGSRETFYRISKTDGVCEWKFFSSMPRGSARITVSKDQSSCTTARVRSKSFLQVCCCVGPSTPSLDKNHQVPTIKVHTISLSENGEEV
# Text: The inhibitory activity of compounds of this invention in vitro was examined using fluorescent dye determination of intracellular calcium concentrations as described in Example 6.
# Functional Assay for Alpha-1A/L Agonist Activity
# The inhibitory activity of compounds of this invention in vitro was examined using fluorescent dye determination of intracellular calcium concentrations.
# Chinese hamster ovary cells CHO-K1 expressing the alpha-1A adrenoceptors (clone 13) are washed 4 times (approx. 300 μL/well) with fluorometric imaging plate reader (FLIPR) buffer (Hank's buffered saline solution (HBSS), 2 mM CaCl2, 10 mM HEPES, 2,5 mM probenecid, 100 μM ascorbic acid), with a final volume of 150 μL/well. Cells are loaded with 50 μL/well of 8 μM Fluo-3 AM (Molecular Probes, Eugene, Oreg.), for a final concentration of 2 μM Fluo-3 AM. Cells are then incubated for 60 min at 37° C. Following dye loading, cells are washed 4 times (approx. 300 μL/well) with FLIPR buffer with a final volume of 150 μL/well.
# The Test compound, control compound and reference compound are run in quadruplicate, 8-point curves on each plate with a final assay concentration range of 10^−4M to 10^−11M for each compound. All compounds are dissolved in DMSO at 10 mM, and serially diluted in FLIPR buffer.
# The assay plate is placed in the FLIPR incubation chamber and a baseline fluorescence measurement (excitation @ 488 nm and emission @ 510-570 nm) is obtained (15 sec interval). An experimental run is then commenced. The reaction is started with the addition of 50 μL/well (at 4× final concentration) of test, control, or reference compound solution from the agonist plate to the assay plate to all 96 wells simultaneously. Fluorescence is measured for 120 sec at 1 sec intervals. Then, a second addition of 5 μM ionomycin (50 μL/well from 5× concentration ionomycin plate) is added to the assay plate. Fluorescence is measured for 30 sec at 1 sec intervals. All experiments are conducted at room temperature.
# For each assay plate, responses (increase in peak fluorescence) in each well following addition of agonist (test, control and reference) are determined. These responses may be expressed as raw CFU (Corrected Fluorescence Units), as a % maximum ionomycin response or other unit as determined by the investigator.
# For test compound, control compound (Noerepinephrine (NE) bitartrate), and reference compound, the concentration producing a 50% increase in control response (EC50) is determined using iterative curve-fitting methods. Excel spreadsheet or Kaleidagraph software are used to fit data to the general logistic function (E=B+Emax·A^nH/A^nH+EC50^nH), where B is the corrected baseline fluorescence units (defined as zero), A is the concentration of agonist added and nH is the Hill slope (constrained to unity). EC50 values and maxima (Emax) for each curve can be estimated objectively using this software.
# In addition the intrinsic activity (α) is determined. Intrinsic activity is defined as the maximum response to test agonist divided by the maximum response to a full agonist acting through the same receptor. For these experiments, the full agonist is defined as Norepinephrine (NE) bitartrate (control).
# [2] = CHO-K1 cells expressing alpha-1A adrenoceptors, FLIPR calcium fluorescence, room temperature
compound,measurement,setting,value
"Cc1c(S(C)(=O)=O)c2cccc(Cl)c2n1CC1=NCCN1 [Example 4, 7-Chloro-1-(4,5-dihydro-1H-imidazol-2-ylmethyl)-3-methanesulfonyl-2-methyl-1H-indole]",melting point,,221 to 223 °C
"Cc1c(S(C)(=O)=O)c2ccccc2n1CC1=NCCN1 [1-(4,5-Dihydro-1H-imidazol-2-ylmethyl)-3-methanesulfonyl-2-methyl-1H-indole]",EC50,[1]; [2],0.832 nM
same,IA (intrinsic activity),[1],1.00
"COc1ccc2c(S(C)(=O)=O)c(C)n(CC3=NCCN3)c2c1 [1-(4,5-Dihydro-1H-imidazol-2-ylmethyl)-3-methanesulfonyl-6-methoxy-2-methyl-1H-indole]",EC50,[1]; [2],10 nM
same,IA (intrinsic activity),[1],1.05
"Cc1ccc2c(c1)c(S(C)(=O)=O)c(C)n2CC1=NCCN1.Cl [1-(4,5-Dihydro-1Hmidazol-2-ylmethyl)-3-methanesulfonyl-2,5-dimethyl-1H-indole]",EC50,[1]; [2],23.4 nM
same,IA (intrinsic activity),[1],0.93
"6-Bromo-1-(4,5-dihydro-1H-imidazol-2-ylmethyl)-1H-indole-3-carboxylic acid dimethylamide [Example 17]",pEC50,[1]; [2],8.34
same,IA (intrinsic activity),[1],1.02
"CN(C)S(=O)(=O)c1cn(CC2=NCCN2)c2cc(Cl)ccc12 [6-Chloro-1-(4,5-dihydro-1H-imidazol-2-ylmethyl)-1H-indole-3-sulfonic acid dimethylamide]",EC50,[1]; [2],9.12 nM
same,IA (intrinsic activity),[1],1.00
"Cc1c(S(C)(=O)=O)c2cccc(C(F)(F)F)c2n1CC1=NCCN1 [1-(4,5-Dihydro-1H-imidazol-2-ylmethyl)-3-methanesulfonyl-2-methyl-7-trifluoromethyl-1H-indole]",EC50,[1]; [2],141 nM
same,IA (intrinsic activity),[1],0.96
"CS(=O)(=O)c1cn(CC2=NCCN2)c2ccccc12 [1-(4,5-Dihydro-1H-imidazol-2-ylmethyl)-3-methanesulfonyl-1H-indole]",EC50,[1]; [2],2.29 nM
same,IA (intrinsic activity),[1],1.07
"Cc1c(S(C)(=O)=O)c2ccc(S(C)(=O)=O)cc2n1CC1=NCCN1 [1-(4,5-Dihydro-1H-imidazol-2-ylmethyl)-3,6-bis-methanesulfonyl-2-methyl-1H-indole]",EC50,[1]; [2],60300 nM
same,IA (intrinsic activity),[1],0.18
"Cc1c(S(C)(=O)=O)c2c(S(C)(=O)=O)cccc2n1CC1=NCCN1 [1-(4,5-Dihydro-1H-imidazol-2-ylmethyl)-3,4-bis-methanesulfonyl-2-methyl-1H-indole]",EC50,[1]; [2],1050 nM
same,IA (intrinsic activity),[1],1.04

# Reference: US6852726B2, “Substituted indoles as alpha-1 agonists” (Syntex LLC, priority 2002, dated 2005)
